Data from ChEMBL document CHEMBL5360558, “Molecular design, synthesis and anticancer activity of new thiopyrano[2,3-d]thiazoles based on 5-hydroxy-1,4-naphthoquinone (juglone)” (Eur J Med Chem, 2023).
Active and inactive are the calls of the source. The calls are words filed in the database; no cut-off is given here.

Tests used:
[1] = tested on: KB 3-1; test: Induction of apoptosis in human KB 3-1 cells assessed as increase in BIP protein expression incubated for 24 hrs by Western blotting assay; format: functional, cell-based
[2] = Acute toxicity in C57BL/6 mouse assessed as ratio of spleen weight to body weight at 20 mg/kg,ip administration and observed after 22 days (reference value: 0.53 +/- 0.18); format: organism-based; conditions: in vivo, 528 h, time 22 day
[3] = tested on: COLO 205; test: Growth inhibition against human COLO 205 cells assessed as lethal concentration incubated for 48 hrs by sulforhodamine B spectrophotometric assay; format: functional; conditions: read-out: LC50 (the source's name)
[4] = tested on: NCI-H522; test: Growth inhibition against human NCI-H522 cells assessed as total growth inhibitory concentration incubated for 48 hrs by sulforhodamine B spectrophotometric assay; format: functional
[5] = tested on: NCI/ADR-RES; test: Growth inhibition of human NCI/ADR-RES cells incubated for 48 hrs by sulforhodamine B spectrophotometric assay; format: functional
[6] = tested on: MDA-MB-231; test: Induction of mitochondrial membrane potential loss in human MDA-MB-231 cells at 10 uM incubated for 24 hrs by JC-1 staining based flow cytometry analysis; format: functional
[7] = tested on: MDA-MB-231; test: Induction of apoptosis in human MDA-MB-231 cells assessed as increase in caspase-9 level at 5 uM incubated for 24 hrs by flow cytometry analysis; format: functional
[8] = tested on: HCT-116; test: Growth inhibition against human HCT-116 cells assessed as lethal concentration incubated for 48 hrs by sulforhodamine B spectrophotometric assay; format: functional; conditions: read-out: LC50 (the source's name)
[9] = tested on: ACHN; test: Growth inhibition of human ACHN cells incubated for 48 hrs by sulforhodamine B spectrophotometric assay; format: functional
[10] = tested on: OVCAR-4; test: Growth inhibition against human OVCAR-4 cells assessed as total growth inhibitory concentration incubated for 48 hrs by sulforhodamine B spectrophotometric assay; format: functional
[11] = tested on: CCRF-CEM; test: Induction of cell cycle arrest in human CCRF-CEM cells assessed as DNA synthesis at 20.7 uM incubated for 2.5 hrs by BrdU incorporation based flow cytometry analysis (reference value: 42.4 +/- 0.66%); format: functional
[12] = tested on: UO-31; test: Growth inhibition of human UO-31 cells incubated for 48 hrs by sulforhodamine B spectrophotometric assay; format: functional
[13] = tested on: Malme-3M; test: Growth inhibition against human Malme-3M cells assessed as lethal concentration incubated for 48 hrs by sulforhodamine B spectrophotometric assay; format: functional; conditions: read-out: LC50 (the source's name)
[14] = tested on: SF-295; test: Growth inhibition against human SF-295 cells assessed as total growth inhibitory concentration incubated for 48 hrs by sulforhodamine B spectrophotometric assay; format: functional
[15] = tested on: OVCAR-5; test: Growth inhibition against human OVCAR-5 cells assessed as lethal concentration incubated for 48 hrs by sulforhodamine B spectrophotometric assay; format: functional; conditions: read-out: LC50 (the source's name)
[16] = tested on: KB 3-1; test: Induction of apoptosis in human KB 3-1 cells assessed as increase in calnexin protein expression at 0.5 to 5 uM incubated for 3 hrs by Western blotting assay; format: functional, cell-based; conditions: dose 0.5-5 µM
[17] = tested on: CCRF-CEM; test: Induction of cell cycle arrest in human CCRF-CEM cells assessed as accumulation of cells at higher G2/M phase at 20.7 uM incubated for 24 hrs by propidium iodide staining based flow cytometry analysis (reference value: 10.09 +/- 0.14%); format: functional
[18] = Cytotoxicity against mouse J774.2 cells assessed as cell growth inhibition incubated for 72 hrs by MTT assay; format: toxicity, cell-based
[19] = tested on: NCI-H226; test: Growth inhibition against human NCI-H226 cells assessed as lethal concentration incubated for 48 hrs by sulforhodamine B spectrophotometric assay; format: functional; conditions: read-out: LC50 (the source's name)
[20] = tested on: MDA-MB-435; test: Growth inhibition against human MDA-MB-435 cells assessed as lethal concentration incubated for 48 hrs by sulforhodamine B spectrophotometric assay; format: functional; conditions: read-out: LC50 (the source's name)
[21] = tested on: SNB-75; test: Growth inhibition of human SNB-75 cells incubated for 48 hrs by sulforhodamine B spectrophotometric assay; format: functional
[22] = tested on: PC-3; test: Growth inhibition against human PC-3 cells assessed as lethal concentration incubated for 48 hrs by sulforhodamine B spectrophotometric assay; format: functional; conditions: read-out: LC50 (the source's name)
[23] = tested on: HOP-62; test: Growth inhibition against human HOP-62 cells assessed as total growth inhibitory concentration incubated for 48 hrs by sulforhodamine B spectrophotometric assay; format: functional
[24] = tested on: A498; test: Growth inhibition of human A498 cells incubated for 48 hrs by sulforhodamine B spectrophotometric assay; format: functional
[25] = tested on: CAKI-1; test: Growth inhibition against human CAKI-1 cells assessed as total growth inhibitory concentration incubated for 48 hrs by sulforhodamine B spectrophotometric assay; format: functional
[26] = tested on: HL-60; test: Growth inhibition against human HL-60 cells assessed as lethal concentration incubated for 48 hrs by sulforhodamine B spectrophotometric assay; format: functional; conditions: read-out: LC50 (the source's name)
[27] = tested on: OVCAR-8; test: Growth inhibition against human OVCAR-8 cells assessed as lethal concentration incubated for 48 hrs by sulforhodamine B spectrophotometric assay; format: functional; conditions: read-out: LC50 (the source's name)
[28] = tested on: SR; test: Growth inhibition against human SR cells assessed as lethal concentration incubated for 48 hrs by sulforhodamine B spectrophotometric assay; format: functional; conditions: read-out: LC50 (the source's name)
[29] = tested on: CCRF-CEM; test: Induction of cell cycle arrest in human CCRF-CEM cells assessed as accumulation of cells at sub-G1 phase at 4.14 uM incubated for 24 hrs by propidium iodide staining based flow cytometry analysis (reference value: 2.36 +/- 0.049%); format: functional
[30] = tested on: NCI-H226; test: Growth inhibition against human NCI-H226 cells assessed as total growth inhibitory concentration incubated for 48 hrs by sulforhodamine B spectrophotometric assay; format: functional
[31] = tested on: Malme-3M; test: Growth inhibition of human Malme-3M cells incubated for 48 hrs by sulforhodamine B spectrophotometric assay; format: functional
[32] = tested on: LOX IMVI; test: Growth inhibition of human LOX IMVI cells incubated for 48 hrs by sulforhodamine B spectrophotometric assay; format: functional
[33] = tested on: PC-3; test: Growth inhibition of human PC-3 cells incubated for 48 hrs by sulforhodamine B spectrophotometric assay; format: functional
[34] = tested on: 786-0; test: Growth inhibition of human 786-0 cells incubated for 48 hrs by sulforhodamine B spectrophotometric assay; format: functional
[35] = Antileukemic activity against human CLL cell assessed as cell growth inhibition incubated for 72 hrs by MTT assay; format: functional, cell-based
[36] = tested on: CCRF-CEM; test: Induction of cell cycle arrest in human CCRF-CEM cells assessed as RNA synthesis at 20.7 uM incubated for 3 hrs by […] incorporation based flow cytometry analysis (reference value: 31.8 +/- 1.17%); format: functional
[37] = tested on: SN12C; test: Growth inhibition against human SN12C cells assessed as total growth inhibitory concentration incubated for 48 hrs by sulforhodamine B spectrophotometric assay; format: functional
[38] = tested on: HCC 2998; test: Growth inhibition against human HCC 2998 cells assessed as lethal concentration incubated for 48 hrs by sulforhodamine B spectrophotometric assay; format: functional; conditions: read-out: LC50 (the source's name)
[39] = Acute toxicity in C57BL/6 mouse assessed as change in hemoglobin level at 20 mg/kg,ip administration observed after 22 days; format: organism-based; conditions: in vivo, 528 h, time 22 day
[40] = tested on: HCT-116; test: Cytotoxicity against human HCT-116 cells assessed as cell growth inhibition incubated for 72 hrs by MTT assay; format: functional, cell-based; conditions: HCT-116, 72 h
[41] = tested on: CCRF-CEM; test: Induction of cell cycle arrest in human CCRF-CEM cells assessed as accumulation of cells at G0/G1 phase at 20.7 uM incubated for 24 hrs by propidium iodide staining based flow cytometry analysis (reference value: 38.68 +/- 0.75%); format: functional
[42] = Acute toxicity in C57BL/6 mouse assessed as change in red blood cells at 20 mg/kg,ip administration observed after 22 days; format: organism-based; conditions: in vivo, 528 h, time 22 day

For O=C1C2=C(C(=O)c3c(O)cccc31)C(c1ccco1)c1sc(=O)[nH]c1S2 (configuration not stated), the Activity [1] was “Dose-Dependent Effect”, the Ratio [2] was 0.51 and the CC50 [3] was 6.93 µM. It also gave a TGI [4] of 6.99 µM, a GI50 [5] of 3.02 µM and an Activity [6] of 37.3%. For the same compound, the Activity [7] was 15%, the CC50 [8] was greater than 100 µM and the GI50 [9] was 4.08 µM. It also gave a TGI [10] of 3.95 µM, an Activity [11] of 0.9% and a GI50 [12] of 2.56 µM. The CC50 [13] was 4.75 µM, the TGI [14] was 3.59 µM and the CC50 [15] was 9.85 µM. The Activity [16] was “inactive”, the Activity [17] was 20.54% and the IC50 at 72 h [18] was 2.59 µM. For the same compound, the CC50 [19] was 27.3 µM, the CC50 [20] was 5.26 µM and the GI50 [21] was 3.17 µM. The CC50 [22] was greater than 100 µM, the TGI [23] was 3.74 µM and the GI50 [24] was 3.48 µM. The TGI [25] was 13.9 µM, the CC50 [26] was greater than 100 µM and the CC50 [27] was 36.2 µM. For the same compound, the CC50 [28] was greater than 100 µM, the Activity [29] was 5.02% and the TGI [30] was 5.46 µM. For the same compound, the GI50 [31] was 0.75 µM, the GI50 [32] was 2.21 µM and the GI50 [33] was 2.75 µM. The GI50 [34] was 7.09 µM, the IC50 [35] was greater than 50 µM and the Activity [36] was 0.07%. For the same compound, the TGI [37] was 3.49 µM, the CC50 [38] was 18.4 µM and the Activity [39] was “Non-Toxic”. The IC50 [40] was 0.6 µM, the Activity [41] was 35.58% and the Activity [42] was “Non-Toxic”.
